Read-outs that look alike come from different tables or passages of the source.
What was measured:
SST2 = target: T1, SST2 (Homo sapiens, UniProt P30874); experiment: R-SAT assay, SST2; format: cell-based; conditions: percent maximal activation relative to control compound
T1 construct: expressed in transfected cells; host or cells: NIH3T3
Method: (§1) The test compound of Formula III was screened according to a modification of the method described in U.S. Pat. No. 5,912,312. The method, herein referred to as Method 1, consists of the following:
(§2) Receptor Selection and Amplification (R-SAT) Assays.
(§3) R-SAT assays were performed with minor modifications from that previously described (6). Briefly, NIH3T3 cells were grown in tissue culture treated rollerbottles to 40-50% confluence. Cells were transfected for 12-16 hours with plasmid DNAs using superfect (Qiagen Inc.) as per manufacture's protocols. R-SAT's were generally performed with 10 μg/rollerbottle of receptor and 50 μg/rollerbottle of Beta-galactosidase plasmid DNA. All receptor and G-protein constructs used were in the PSI mammalian expression vector (Promega Inc.). The transfected cells were then trypsinized and frozen in DMEM containing 10% DMSO. Frozen cells were later thawed, plated at 10,000-40,000 cells per well of a 96 ½ area plate that contained drug. […] Media was then removed from the plates and marker gene activity was measured by the addition of the beta-galactosidase substrate ONPG (in PBS with 5% NP-40). The resulting colorimetric reaction was measured in a spectrophotometric plate reader (Titertek Inc.) at […].
(§4) EC50, IC50 and Ki are presented as the negative of the calculated potency in Molar.

Acetylcholine m3 = target: T2, Acetylcholine m3 (Homo sapiens, UniProt P20309); experiment: R-SAT assay, Acetylcholine m3; format: cell-based
T2 construct: expressed in transfected cells; host or cells: NIH3T3
T2 sequence (P20309 whole entry): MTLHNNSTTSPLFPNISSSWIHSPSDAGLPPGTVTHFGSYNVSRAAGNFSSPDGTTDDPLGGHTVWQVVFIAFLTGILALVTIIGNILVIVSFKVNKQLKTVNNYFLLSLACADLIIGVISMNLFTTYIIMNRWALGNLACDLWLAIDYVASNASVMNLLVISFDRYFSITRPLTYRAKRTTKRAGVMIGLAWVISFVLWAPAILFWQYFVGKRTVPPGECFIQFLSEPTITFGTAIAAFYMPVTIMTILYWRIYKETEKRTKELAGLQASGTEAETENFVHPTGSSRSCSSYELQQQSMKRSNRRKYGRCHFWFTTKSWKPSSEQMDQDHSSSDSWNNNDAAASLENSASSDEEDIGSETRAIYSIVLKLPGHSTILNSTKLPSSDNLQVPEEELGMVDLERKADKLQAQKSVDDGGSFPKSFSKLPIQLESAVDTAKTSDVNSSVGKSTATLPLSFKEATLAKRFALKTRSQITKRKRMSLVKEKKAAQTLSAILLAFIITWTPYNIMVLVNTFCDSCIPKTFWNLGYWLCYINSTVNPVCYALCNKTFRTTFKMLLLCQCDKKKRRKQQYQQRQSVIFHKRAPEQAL
Method: as §1, §2, §3, §4

CRF2b = target: T3, CRF2b (Homo sapiens, UniProt Q13324); experiment: R-SAT assay, CRF2b; format: cell-based; conditions: percent maximal activation relative to control compound
T3 construct: expressed in transfected cells; host or cells: NIH3T3
Method: as §1, §2, §3, §4

SST5 = target: T4, SST5 (Homo sapiens, UniProt P35346); experiment: R-SAT assay, SST5; format: cell-based; conditions: percent maximal activation relative to control compound
T4 construct: expressed in transfected cells; host or cells: NIH3T3
T4 sequence (P35346 whole entry, species assumed): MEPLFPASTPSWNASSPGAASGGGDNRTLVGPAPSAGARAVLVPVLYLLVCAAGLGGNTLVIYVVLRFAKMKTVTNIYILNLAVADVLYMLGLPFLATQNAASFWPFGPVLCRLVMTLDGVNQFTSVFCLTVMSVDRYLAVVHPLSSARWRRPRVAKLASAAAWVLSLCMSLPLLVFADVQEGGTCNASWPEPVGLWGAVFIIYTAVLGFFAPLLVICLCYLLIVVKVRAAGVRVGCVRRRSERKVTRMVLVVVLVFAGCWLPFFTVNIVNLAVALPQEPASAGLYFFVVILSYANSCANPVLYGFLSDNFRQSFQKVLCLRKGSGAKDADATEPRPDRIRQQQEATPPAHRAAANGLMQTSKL
Method: as §1, §2, §3, §4

male NSA mice = experiment: Locomotor activity in mice after i.v. injection; format: in vivo
Method: The test compound of Formula III was tested at 10 mg/kg, i.v. in male NSA mice. Locomotor activity was measured for 15 min following injection. The locomotor activity was decreased relative to sham injected animals. Within a few minutes into the session, the mice sat quietly in a corner of the chamber in a normal posture.
Following the initial experiment, a dose-response curves using 1, 3, and 10 mg/kg, i.v. were conducted. The effects of 10 mg/kg the test compound of Formula III were replicated.

Dopamine D1 = target: T5, Dopamine D1 (Homo sapiens, UniProt P21728); experiment: R-SAT assay, Dopamine D1; format: cell-based
T5 construct: expressed in transfected cells; host or cells: NIH3T3
T5 sequence (P21728 whole entry): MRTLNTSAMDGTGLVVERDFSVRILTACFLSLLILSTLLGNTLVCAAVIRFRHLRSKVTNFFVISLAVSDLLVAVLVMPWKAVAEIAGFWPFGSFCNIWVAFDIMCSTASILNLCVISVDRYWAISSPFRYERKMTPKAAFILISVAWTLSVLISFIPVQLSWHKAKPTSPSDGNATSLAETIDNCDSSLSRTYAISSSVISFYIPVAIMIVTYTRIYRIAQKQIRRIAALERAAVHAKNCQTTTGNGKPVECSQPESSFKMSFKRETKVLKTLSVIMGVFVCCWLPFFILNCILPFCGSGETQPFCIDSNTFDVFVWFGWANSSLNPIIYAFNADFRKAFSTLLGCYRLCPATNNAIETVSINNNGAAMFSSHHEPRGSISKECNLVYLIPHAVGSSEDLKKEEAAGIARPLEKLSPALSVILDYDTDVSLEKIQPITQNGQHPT
Method: as §1, §2, §3, §4

Beta Adrenergic 1 = target: T6, Beta Adrenergic 1 (Homo sapiens, UniProt P08588); experiment: R-SAT assay, Beta Adrenergic 1; format: cell-based; conditions: percent maximal activation relative to control compound
T6 construct: expressed in transfected cells; host or cells: NIH3T3
Method: as §1, §2, §3, §4

k opioid = target: T7, k opioid (Homo sapiens, UniProt P41145); experiment: R-SAT assay, k opioid; format: cell-based; conditions: percent maximal activation relative to control compound
T7 construct: expressed in transfected cells; host or cells: NIH3T3
Method: as §1, §2, §3, §4

urotensin II receptor = target: T8, urotensin II receptor (Homo sapiens, UniProt Q9UKP6); experiment: R-SAT assay, Urotensin II receptor; format: cell-based
T8 construct: expressed in transfected cells; host or cells: NIH3T3
T8 sequence (Q9UKP6 1-389): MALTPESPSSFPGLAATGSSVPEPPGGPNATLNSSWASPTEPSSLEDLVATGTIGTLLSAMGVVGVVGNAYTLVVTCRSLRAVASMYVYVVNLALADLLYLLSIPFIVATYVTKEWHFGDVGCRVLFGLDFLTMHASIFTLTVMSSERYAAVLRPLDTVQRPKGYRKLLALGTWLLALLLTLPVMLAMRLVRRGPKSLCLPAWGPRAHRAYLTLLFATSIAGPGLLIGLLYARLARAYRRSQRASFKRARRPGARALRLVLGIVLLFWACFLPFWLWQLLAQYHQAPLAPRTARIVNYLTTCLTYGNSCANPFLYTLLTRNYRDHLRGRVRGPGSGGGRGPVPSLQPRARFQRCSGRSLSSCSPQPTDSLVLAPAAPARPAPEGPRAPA
Method: as §1, §2
(§5) R-SAT assays were performed with minor modifications from that previously described (6). Briefly, NIH3T3 cells were grown in tissue culture treated rollerbottles to 40-50% confluence. Cells were transfected for 12-16 hours with plasmid DNAs using superfect (Qiagen Inc.) as per manufacture's protocols. R-SAT's were generally performed with 10 μg/rollerbottle of receptor and 50 μg/rollerbottle of Beta-galactosidase plasmid DNA. All receptor and G-protein constructs used were in the PSI mammalian expression vector (Promega Inc.). The transfected cells were then trypsinized and frozen in DMEM containing 10% DMSO. Frozen cells were later thawed, plated at 10,000-40,000 cells per well of a 96 ½ area plate that contained drug. Cells were then grown in a humidified atmosphere with 5% ambient CO2 for five days. Media was then removed from the plates and marker gene activity was measured by the addition of the beta-galactosidase substrate ONPG (in PBS with 5% NP-40). The resulting colorimetric reaction was measured in a spectrophotometric plate reader (Titertek Inc.) at […].
as §4

Serotonin 5HT-1E = target: T9, Serotonin 5HT-1E (Homo sapiens, UniProt P28566); experiment: R-SAT assay, Serotonin 5HT-1E; format: cell-based; conditions: percent maximal activation relative to control compound
T9 construct: expressed in transfected cells; host or cells: NIH3T3
Method: as §1, §2, §3, §4

CRF2a = target: T10, CRF2a (Homo sapiens, UniProt Q13324); experiment: R-SAT assay, CRF2a; format: cell-based; conditions: percent maximal activation relative to control compound
T10 construct: expressed in transfected cells; host or cells: NIH3T3
Method: as §1, §2, §3, §4

Serotonin 5HT7 = target: T11, Serotonin 5HT7 (Homo sapiens, UniProt P34969); experiment: R-SAT assay, Serotonin 5HT7; format: cell-based; conditions: percent maximal activation relative to control compound
T11 construct: expressed in transfected cells; host or cells: NIH3T3
T11 sequence (P34969 whole entry): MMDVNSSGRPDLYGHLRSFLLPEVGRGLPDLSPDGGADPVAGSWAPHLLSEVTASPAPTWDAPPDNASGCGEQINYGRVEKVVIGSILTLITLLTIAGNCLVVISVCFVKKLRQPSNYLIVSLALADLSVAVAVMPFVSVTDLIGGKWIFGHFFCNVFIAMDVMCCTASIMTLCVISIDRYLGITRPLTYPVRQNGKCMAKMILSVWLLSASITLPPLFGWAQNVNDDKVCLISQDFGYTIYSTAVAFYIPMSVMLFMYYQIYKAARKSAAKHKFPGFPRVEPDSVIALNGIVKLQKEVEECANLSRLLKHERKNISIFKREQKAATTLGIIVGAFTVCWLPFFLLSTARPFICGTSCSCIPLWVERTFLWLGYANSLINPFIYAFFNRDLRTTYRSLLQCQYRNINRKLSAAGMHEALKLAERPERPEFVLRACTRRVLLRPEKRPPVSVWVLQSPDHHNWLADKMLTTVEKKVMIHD
Method: as §1, §2, §3, §4

Serotonin 5HT-1A = target: T12, Serotonin 5HT-1A (Homo sapiens, UniProt P08908); experiment: R-SAT assay, Serotonin 5HT-1A; format: cell-based; conditions: competitive antagonist mode; percent maximal inhibition relative to control standard compound
T12 construct: expressed in transfected cells; host or cells: NIH3T3
T12 sequence (P08908 whole entry): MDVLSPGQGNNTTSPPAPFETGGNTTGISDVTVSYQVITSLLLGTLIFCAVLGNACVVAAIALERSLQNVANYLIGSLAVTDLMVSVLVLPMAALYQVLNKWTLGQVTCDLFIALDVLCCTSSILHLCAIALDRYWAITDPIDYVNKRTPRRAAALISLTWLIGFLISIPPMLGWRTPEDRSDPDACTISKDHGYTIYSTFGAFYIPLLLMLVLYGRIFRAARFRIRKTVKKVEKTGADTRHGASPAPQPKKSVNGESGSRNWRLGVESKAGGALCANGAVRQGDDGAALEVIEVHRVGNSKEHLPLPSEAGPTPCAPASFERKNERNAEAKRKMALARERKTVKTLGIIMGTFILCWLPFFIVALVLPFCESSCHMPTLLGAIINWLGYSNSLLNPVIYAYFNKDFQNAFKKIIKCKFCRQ
Method: as §1, §2, §3, §4

Serotonin 5HT2a = target: T13, Serotonin 5HT2a (Homo sapiens, UniProt P28223); experiment: R-SAT assay, Serotonin 5HT2a; format: cell-based
T13 construct: expressed in transfected cells; host or cells: NIH3T3
T13 sequence (P28223 whole entry): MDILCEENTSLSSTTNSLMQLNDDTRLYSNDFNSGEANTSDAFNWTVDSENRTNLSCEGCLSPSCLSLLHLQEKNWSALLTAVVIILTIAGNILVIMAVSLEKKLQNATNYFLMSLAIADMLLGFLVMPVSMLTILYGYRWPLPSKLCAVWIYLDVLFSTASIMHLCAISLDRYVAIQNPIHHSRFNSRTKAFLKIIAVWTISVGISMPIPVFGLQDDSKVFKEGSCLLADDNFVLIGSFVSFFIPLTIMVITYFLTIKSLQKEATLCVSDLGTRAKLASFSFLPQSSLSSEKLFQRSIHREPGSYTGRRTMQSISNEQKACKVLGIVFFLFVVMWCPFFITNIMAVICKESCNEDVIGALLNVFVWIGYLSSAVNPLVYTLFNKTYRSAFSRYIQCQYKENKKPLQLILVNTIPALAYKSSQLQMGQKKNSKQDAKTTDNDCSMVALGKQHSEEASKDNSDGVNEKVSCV
Method: as §1, §2, §3, §4

Serotonin 5HT6 = target: T14, Serotonin 5HT6 (Homo sapiens, UniProt P50406); experiment: R-SAT assay, Serotonin 5HT6; format: cell-based; conditions: percent maximal activation relative to control compound
T14 construct: expressed in transfected cells; host or cells: NIH3T3
T14 sequence (P50406 whole entry): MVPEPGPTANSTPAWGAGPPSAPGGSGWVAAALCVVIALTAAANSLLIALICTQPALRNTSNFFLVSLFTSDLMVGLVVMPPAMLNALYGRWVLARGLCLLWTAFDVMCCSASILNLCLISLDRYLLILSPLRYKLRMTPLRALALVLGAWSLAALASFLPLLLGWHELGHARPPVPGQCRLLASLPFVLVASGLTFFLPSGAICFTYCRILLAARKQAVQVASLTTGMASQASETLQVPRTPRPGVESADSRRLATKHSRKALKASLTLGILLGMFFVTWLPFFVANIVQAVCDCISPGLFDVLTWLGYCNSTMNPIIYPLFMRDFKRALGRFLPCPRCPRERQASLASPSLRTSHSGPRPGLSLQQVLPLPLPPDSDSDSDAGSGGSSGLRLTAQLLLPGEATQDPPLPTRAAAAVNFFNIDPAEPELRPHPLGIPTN
Method: as §1, §2, §3, §4

Dopamine D5 = target: T15, Dopamine D5 (Homo sapiens, UniProt P21918); experiment: R-SAT assay, Dopamine D5; format: cell-based
T15 construct: expressed in transfected cells; host or cells: NIH3T3
T15 sequence (P21918 whole entry): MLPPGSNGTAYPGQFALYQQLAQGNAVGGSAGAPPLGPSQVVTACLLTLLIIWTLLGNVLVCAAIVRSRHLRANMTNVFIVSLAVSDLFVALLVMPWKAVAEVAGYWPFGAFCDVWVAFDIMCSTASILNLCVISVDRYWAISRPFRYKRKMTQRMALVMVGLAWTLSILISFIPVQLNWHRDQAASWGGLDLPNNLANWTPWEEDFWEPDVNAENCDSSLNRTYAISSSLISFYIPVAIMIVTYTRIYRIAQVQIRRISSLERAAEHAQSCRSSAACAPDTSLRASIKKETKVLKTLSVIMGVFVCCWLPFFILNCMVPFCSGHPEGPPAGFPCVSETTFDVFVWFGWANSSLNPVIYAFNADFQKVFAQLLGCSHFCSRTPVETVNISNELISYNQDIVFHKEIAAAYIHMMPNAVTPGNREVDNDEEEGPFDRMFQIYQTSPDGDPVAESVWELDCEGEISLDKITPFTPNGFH
Method: as §1, §2, §3, §4

SST3 = target: T16, SST3 (Homo sapiens, UniProt P32745); experiment: R-SAT assay, SST3; format: cell-based; conditions: percent maximal activation relative to control compound
T16 construct: expressed in transfected cells; host or cells: NIH3T3
Method: as §1, §2, §3, §4

Serotonin 5HT2c = target: T17, Serotonin 5HT2c (Homo sapiens, UniProt P28335); experiment: R-SAT assay, Serotonin 5HT2c; format: cell-based; conditions: inverse agonist mode; percent maximal inhibition relative to repression of basal activity by a control standard compound
T17 construct: expressed in transfected cells; host or cells: NIH3T3
Method: as §1, §2, §3, §4

Histamine H2 = target: T18, Histamine H2 (Homo sapiens, UniProt P25021); experiment: R-SAT assay, Histamine H2; format: cell-based
T18 construct: expressed in transfected cells; host or cells: NIH3T3
T18 sequence (P25021 whole entry): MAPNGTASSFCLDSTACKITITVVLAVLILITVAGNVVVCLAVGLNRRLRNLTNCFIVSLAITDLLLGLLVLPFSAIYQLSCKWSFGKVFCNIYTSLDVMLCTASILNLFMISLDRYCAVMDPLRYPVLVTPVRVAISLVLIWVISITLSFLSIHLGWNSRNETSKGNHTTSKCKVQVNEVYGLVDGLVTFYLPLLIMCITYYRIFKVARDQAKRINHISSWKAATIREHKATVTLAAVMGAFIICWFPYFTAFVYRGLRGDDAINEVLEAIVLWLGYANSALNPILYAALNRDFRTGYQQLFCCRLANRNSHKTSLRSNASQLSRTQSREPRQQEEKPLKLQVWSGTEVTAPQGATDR
Method: as §1, §2, §3, §4

Serotonin 5HT2b = target: T19, Serotonin 5HT2b (Homo sapiens, UniProt P41595); experiment: R-SAT assay, Serotonin 5HT2b; format: cell-based
T19 construct: expressed in transfected cells; host or cells: NIH3T3
T19 sequence (P41595 whole entry): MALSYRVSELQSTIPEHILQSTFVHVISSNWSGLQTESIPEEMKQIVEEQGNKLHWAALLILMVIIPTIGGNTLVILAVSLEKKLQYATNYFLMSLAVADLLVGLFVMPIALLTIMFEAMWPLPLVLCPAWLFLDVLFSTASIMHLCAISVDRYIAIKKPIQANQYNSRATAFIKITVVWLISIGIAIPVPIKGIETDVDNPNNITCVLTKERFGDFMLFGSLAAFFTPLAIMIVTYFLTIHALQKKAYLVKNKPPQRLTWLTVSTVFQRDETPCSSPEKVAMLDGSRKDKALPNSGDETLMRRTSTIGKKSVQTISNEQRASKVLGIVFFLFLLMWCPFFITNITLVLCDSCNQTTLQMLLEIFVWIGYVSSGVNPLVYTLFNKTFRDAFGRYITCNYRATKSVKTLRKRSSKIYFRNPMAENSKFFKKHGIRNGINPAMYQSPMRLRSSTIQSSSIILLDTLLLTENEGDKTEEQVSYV
Method: as §1, §2, §5, §4

Beta Adrenergic 2 = target: T20, Beta Adrenergic 2 (Homo sapiens, UniProt P07550); experiment: R-SAT assay, Beta Adrenergic 2; format: cell-based
T20 construct: expressed in transfected cells; host or cells: NIH3T3
T20 sequence (P07550 whole entry): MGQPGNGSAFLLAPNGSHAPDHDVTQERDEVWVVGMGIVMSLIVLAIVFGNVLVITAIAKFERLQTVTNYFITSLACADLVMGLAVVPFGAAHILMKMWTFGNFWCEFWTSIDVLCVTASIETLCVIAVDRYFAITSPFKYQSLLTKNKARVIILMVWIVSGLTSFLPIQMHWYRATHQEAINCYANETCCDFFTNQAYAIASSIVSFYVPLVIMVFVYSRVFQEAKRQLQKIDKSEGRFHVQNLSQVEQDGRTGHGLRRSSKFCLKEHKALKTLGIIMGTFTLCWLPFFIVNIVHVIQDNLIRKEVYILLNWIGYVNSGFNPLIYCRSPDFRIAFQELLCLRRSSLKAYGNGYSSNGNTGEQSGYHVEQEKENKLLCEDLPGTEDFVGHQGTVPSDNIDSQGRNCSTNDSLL
Method: as §1, §2, §3, §4

[1] = competitive antagonist mode, percent maximal inhibition relative to control standard compound
[2] = percent maximal activation relative to control compound
[3] = inverse agonist mode, percent maximal inhibition relative to repression of basal activity by a control standard compound

CN(C)CCC1(c2ccc(Cl)cc2)Cc2ccccc2C(=O)O1 (stereo not shown) [Formula III]
Agonist % Eff (SST2): 0%
Competitive Antagonist % Inh (Acetylcholine m3; [1]): 28%
Agonist % Eff (Acetylcholine m3; [2]): 1.8%
Agonist % Eff (CRF2b): 0%
Agonist % Eff (SST5): 0%
locomotor activity (male NSA mice; 10 mg/kg i.v., male NSA mice, 15 min following injection, relative to sham injected animals): decreased
behavioural observation (responsiveness, appearance) (male NSA mice; 10 mg/kg i.v., male NSA mice, during the session): responsive to sound and touch and otherwise appeared normal
effects on locomotor activity in dose-response experiment (male NSA mice; dose-response 1, 3 and 10 mg/kg i.v., result stated for 10 mg/kg): replicated
Competitive Antagonist % Inh (Dopamine D1; [1]): 0%
Agonist % Eff (Dopamine D1; [2]): 0%
Agonist % Eff (Beta Adrenergic 1): 0%
Agonist % Eff (k opioid): 0%
EC50 (urotensin II receptor; agonist mode, negative of the calculated potency in Molar, read-out: Agonist EC50 (converted)): 100 nM
maximal biological response (urotensin II receptor; compared with the response evoked by the urotensin II peptide): equal to or greater than the response evoked by the urotensin II peptide
EC50 (urotensin II receptor; functional potency, Example 1 (Method 1), read-out: EC50 for the urotensin II receptor): 200 nM
Agonist % Eff (urotensin II receptor; [2]): 132%
Agonist % Eff (Serotonin 5HT-1E): 19%
Agonist % Eff (CRF2a): 0%
Agonist % Eff (Serotonin 5HT7): 0%
Competitive Antagonist % Inh (Serotonin 5HT-1A): 0%
Inverse Agonist % Inh (Serotonin 5HT2a; [3]): 11.9%
Agonist % Eff (Serotonin 5HT2a; [2]): 58%
Agonist % Eff (Serotonin 5HT6): 0%
Competitive Antagonist % Inh (Dopamine D5; [1]): 0%
Agonist % Eff (Dopamine D5; [2]): 0%
Agonist % Eff (SST3): 0%
Inverse Agonist % Inh (Serotonin 5HT2c): 0%
Inverse Agonist % Inh (Histamine H2; [3]): 0%
Agonist % Eff (Histamine H2; [2]): 0%
Competitive Antagonist % Inh (Serotonin 5HT2b; [1]): 0%
Inverse Agonist % Inh (Serotonin 5HT2b; [3]): 0%
Agonist % Eff (Serotonin 5HT2b; [2]): 0%
Competitive Antagonist % Inh (Beta Adrenergic 2; [1]): 0%
Agonist % Eff (Beta Adrenergic 2; [2]): 0%

From patent US20060058374A1, “Urotensin II receptor agents” (priority 2002, published 2006)
